According to patent US6649628B1, “N-[2-hydroxy-3-(1-piperidinyl)propoxy]pyridine-1-oxide-3-carboximidoyl chloride and its use in the treatment of insulin resistance” (Biorex Kutato es Fejleszto RT, priority 1999, dated 2003):
Marks after values point to notes of the source that are not given here.

Test system: STZ diabetic Wistar rats
Assay: Preliminary test: N-oxide derivatives of bimoclomol on motor and sensor nerve conduction velocity deficit
Type: in vivo, rat
Details: for Improvement of nerve conduction velocity (%) motor (MNCV) / Improvement of nerve conduction velocity (%) sensor (SNCV): 5 mg/kg
Protocol: In a preliminary test the effectiveness of the three N-oxide derivatives of bimoclomol on motor and sensor neuropathy in STZ diabetic Wistar rats were studied. The effectiveness of the three bimoclomol N-oxide derivatives in improving the peripheral motor and sensor nerve conduction velocity deficit caused by streptozotocine-induced diabetes was determined with use of the method described in detail in Experiment 2.
(Graphpad Instat, San Diego, Calif.).

| Compound | Improvement of nerve conduction velocity (%) motor (MNCV) | Improvement of nerve conduction velocity (%) sensor (SNCV) | effect on the motor and sensor neuropathy compared with bimoclomol (N-oxide derivatives 5 mg/kg vs bimoclomol 20 mg/kg) |
| --- | --- | --- | --- |
| [O-][n+]1cccc(C(Cl)=NOCC(O)CN2CCCCC2)c1 (centres unmarked) [N-[2-hydroxy-3-(1-piperidinyl)-1-propoxy]-pyridine-1-oxide-3-carboximidoyl chloride] | 66,5% | 63,4% | equivalent with bimoclomol |
| [O-][n+]1cccc(C(Cl)=NOCC(O)C[N+]2([O-])CCCCC2)c1 (centres unmarked) [double N-oxide derivative of bimoclomol] | 25,9* % | 29,1** % | – |
